From the NIST ThermoML archive (doi:10.1016/j.jct.2007.04.005)

Test: xn = mol fraction of the nth substance listed
Conditions: 298.15 K, Liquid

CCCCCCCCC [nonane] + C1CCCCC1
mass density [kg/m3]
Conditions | x2 = 0 | x2 = 0.09303 | x2 = 0.2009 | x2 = 0.3051 | x2 = 0.417 | x2 = 0.512 | x2 = 0.5996 | x2 = 0.7052 | x2 = 0.7993 | x2 = 0.9039
18340 kPa | – | – | – | – | – | – | – | 760.7 | 768 | 777.3
20370 kPa | 728.6 | 731.6 | 735.7 | 740 | 745.1 | 749.8 | 755.2 | 762.1 | 769.4 | 778.8
22390 kPa | 730 | 732.9 | 737.1 | 741.4 | 746.5 | 751.3 | 756.6 | 763.5 | 770.8 | 780.2
24420 kPa | 731.3 | 734.2 | 738.4 | 742.7 | 747.9 | 752.6 | 758 | 764.9 | 772.2 | 781.6
26450 kPa | 732.6 | 735.6 | 739.8 | 744.1 | 749.2 | 753.9 | 759.3 | 766.3 | 773.5 | 783
28470 kPa | 733.9 | 736.9 | 741.1 | 745.3 | 750.5 | 755.2 | 760.6 | 767.6 | 774.9 | 784.3
29490 kPa | 734.5 | 737.5 | 741.7 | 746 | 751.1 | 755.8 | 761.3 | 768.2 | 775.5 | 785
30500 kPa | 735.1 | 738.1 | 742.3 | 746.6 | 751.8 | 756.5 | 761.9 | 768.9 | 776.2 | 785.7
32530 kPa | 736.4 | 739.4 | 743.6 | 747.9 | 753 | 757.7 | 763.2 | 770.2 | 777.5 | 787
34550 kPa | 737.6 | 740.7 | 744.8 | 749.1 | 754.3 | 759 | 764.5 | 771.5 | 778.7 | 788.2
36580 kPa | 738.8 | 741.8 | 746 | 750.3 | 755.5 | 760.2 | 765.7 | 772.7 | 780 | 789.5
38600 kPa | 740 | 743 | 747.2 | 751.5 | 756.7 | 761.4 | 766.9 | 773.9 | 781.4 | 790.7
39620 kPa | 740.6 | 743.6 | 747.8 | 752.1 | 757.3 | 762 | 767.5 | 774.5 | – | 791.3
